Consider 3 compounds from patent US20130217646A1, “COMBINATION OF ALOVUDINE AND ZIDOVUDINE IN A MOLAR RATIO OF 1:100 TO 1:350” (MEDIVIR AB, priority 2006, published 2013).

The data set concerns MT4 cell line. Particulars: human, 14 days. Here is the method:
Several suitable cell lines supporting HIV growth are readily available including lines include those supporting HIV growth including the CEM×174 cell line derived from Swedish Institute for Infectious Disease Control (SMI) Sweden, MT-4 (commercially available) and Hep G2 (commercially available).
In short, 100 ul cells are seeded in a 96-well plate at a concentration of 1×10^4 cells/ml, at exponential growth were cultured in RPMI 1640 medium (from Gibco) supplemented with 10% heat-inactivated fetal bovine serum (from Gibco) and Penicillin-Streptomycin (from Gibco). The medium is changed every 3 or 4 days, and cells are subcultured once a week at a dilution of 1:10. All cultures are routinely checked for Mycoplasma infection and grown at 37° C. in a humidified 5% CO2 atmosphere.
All drugs tested were first dissolved at 10 mM in dimethyl sulfoxide (DMSO) before further dilution to the appropriate concentration in the culture medium. The analysis of mitochondrial DNA was performed by using Taqman technology as previously reported (Zhang, H et al. Mol. Pharmacol 1994 46:1063-1069), with modifications, and is briefly described below.
The cells are treated for a series of durations with the test drugs, such as alovudine, fosalvudine, zidovudine, abacavir etc or various combinations of alovudine/fosalvudine and zidovudine/abacavir. The various ratios indicated in the respective Tables. After 14 days of drug exposure, cells are collected. Total cellular DNA was prepared using the QiAamp DNA blood Mini kit (QIAGEN, Chatsworth, Calif.), following the supplier's instructions for the Qiagene Blood&Body Fluid Spin Protocol, and subject to DNA amplification.
The probes of mitochondrial DNA Taqman and human nuclear DNA were prepared from Applied Biosystems, which employs an internal quenched DNA probe utilizing fluorescence resonance energy transfer (FRET) to generate a spectroscopic response due to 5′->3′ exonuclease activity of Taq DNA polymerase during DNA amplification. […] It is a fully integrated system for real-time detection of PCR using ABI PRISM 7700 and TaqMan reagents for the fluorogenic 5′ nuclease assay.
The cell growth was controlled by cellular nuclear DNA ([…] ribosomal DNA).
The above described assay was performed in the MT4 cell line derived from a T lymphocyte.

Read-outs that look alike come from different tables or passages of the source.

`Nc1nc(NC2CC2)c2ncn([C@H]3C=C[C@@H](CO)C3)c2n1` [abacavir]: for the setting “1 uM”, the “Inhibition of mitochondrial DNA, %” value came to 18% and the “Mean qty mt DNA” value worked out at 756544. Under “20 uM”, the “Inhibition of mitochondrial DNA, %” value came to 51% and the “Mean qty mt DNA” value was determined as 506181.
`Cc1cn([C@H]2C[C@H](F)[C@@H](CO)O2)c(=O)[nH]c1=O` [alovudine, 2′,3′-dideoxy-3′-fluorothymidine]: under “0.1 uM”, the “% Reduction mt/n DNA” value amounted to 13%, the “% reduction mt DNA” value is recorded as 44%, the “% reduction n DNA” value came to 35% and the “Inhibition of mitochondrial DNA %” value is reported as 70%. Where the note is “0.1 uM”, the “Inhibition of mitochondrial DNA, %” value turned out to be 40%; the “Mean qty mt DNA” value was 549900; the “Ratio Mitochondrial: Nuclear DNA” value was found to be 0.45; the “Relative no. copies mt DNA” value worked out at 434709. Further, the “Relative no. copies n DNA” value (0.1 uM) amounted to 956331. Besides, under “0.2 uM”, the “Inhibition of mitochondrial DNA, %” value is given as 82% and the “Mean qty mt DNA” value is 187574. For the setting “0.3 uM”, the “% Reduction mt/n DNA” value was determined as 59%, the “% reduction mt DNA” value was found to be 68%, the “% reduction n DNA” value is reported as 22% and the “Inhibition of mitochondrial DNA %” value came out at 95%. Moreover, for the setting “0.3 uM”, the “Ratio Mitochondrial: Nuclear DNA” value was determined as 0.21, the “Relative no. copies mt DNA” value is given as 247481 and the “Relative no. copies n DNA” value came out at 1160000. Also, for the setting “0.6 uM”, the “% Reduction mt/n DNA” value was 89%, the “% reduction mt DNA” value worked out at 88%, the “% reduction n DNA” value is 0% and the “Ratio Mitochondrial: Nuclear DNA” value is listed as 0.06. Under “0.6 uM”, the “Relative no. copies mt DNA” value is listed as 96998 and the “Relative no. copies n DNA” value was determined as 1740000. Moreover, the “Inhibition of mitochondrial DNA %” value (1 uM) came to 100%.
With `Cc1cn([C@H]2C[C@H](N=[N+]=[N-])[C@@H](CO)O2)c(=O)[nH]c1=O` [zidovudine, 2′3′-dideoxy-3′-azido-thymidine], the “Inhibition of mitochondrial DNA %” value (1 uM) was determined as 0%. Besides, the “Inhibition of mitochondrial DNA %” value (3 uM) came out at 0%. Moreover, where the note is “10 uM”, the “% Reduction mt/n DNA” value turned out to be 0%, the “% reduction mt DNA” value is reported as 0%, the “% reduction n DNA” value was 40% and the “Inhibition of mitochondrial DNA %” value is 0%. Where the note is “10 uM”, the “Ratio Mitochondrial: Nuclear DNA” value was determined as 0.96, the “Relative no. copies mt DNA” value turned out to be 856782 and the “Relative no. copies n DNA” value was found to be 891446. For the same compound, where the note is “30 uM”, the “% Reduction mt/n DNA” value is recorded as 0%; the “% reduction mt DNA” value is listed as 0%; the “% reduction n DNA” value is 43%; the “Inhibition of mitochondrial DNA, %” value is listed as 0%. Moreover, where the note is “30 uM”, the “Mean qty (mitochondrial DNA)” value is reported as 1410000, the “Ratio Mitochondrial: Nuclear DNA” value is listed as 1.19, the “Relative no. copies mt DNA” value stood at 993321 and the “Relative no. copies n DNA” value amounted to 836935. In addition, for the setting “60 uM”, the “% Reduction mt/n DNA” value was 0%, the “% reduction mt DNA” value came to 4%, the “% reduction n DNA” value is listed as 40% and the “Ratio Mitochondrial: Nuclear DNA” value was 0.84. Where the note is “60 uM”, the “Relative no. copies mt DNA” value is given as 748730 and the “Relative no. copies n DNA” value is 890663.
